In patent US20050287192A1, “Wound bandage comprising a non-enzymatic antioxidant” (priority 2002, published 2005):
Entries after “also recorded” stand apart in the source; their conditions may differ.

Experiments:
Format in all cases: cell-based, human
leukocytes [1] = test: ability of leukocytes to kill bacteria in presence of additives in solution (CFU count); conditions: additive 10 mM in solution; leukocytes 1×10^5 cells/ml and Staphylococcus aureus 1×10^6 cells/ml, 37° C., two hours; FIG. 6
Procedure: The ability of leukocytes to kill bacteria in the presence of glutathione (10 mM) or N-acetylcysteine (10 mM) in solution was studied in the following manner: Leukocytes (1×10^5 cells/ml) and Staphylococcus aureus (1×10^6 cells/ml) were incubated together at 37° C. for two hours. The leukocytes were killed and the remaining bacteria were allowed to grow on a blood agar plate for 24 hours, after which the number of bacterial colonies (CFU) was calculated. Control samples without leukocytes were done in parallel with all the tests. A small number of colonies means that the leukocytes have good ability to kill bacteria.

leukocytes [2] = test: ability of leukocytes to be activated by zymosan after contact with cotton wool compresses; conditions: after contact with cotton wool compress with additive; FIG. 4
Procedure: The ability of the leukocytes to react against a microbial agent after contact with the cotton wool compresses was then tested by addition of zymosan, a fungal spore used to test the ability of the leukocytes to kill microbes.

leukocytes [3] = test: lipid peroxidation of leukocyte cell membranes measured with fluorescent probe DPPP; conditions: contact between leukocytes and treated cotton wool compress, DPPP fluorescence; FIG. 5
Procedure: Lipid peroxidation of cell membranes during the contact between leukocytes and cotton wool compresses was measured with a fluorescent probe, diphenyl-1-pyrenylphosphine (DPPP), which reacts with membrane peroxides and forms a fluorescent oxide, see Okimoto, Watanabe, et al., 2000 FEBS Letter, vol 474, pages 137-140.

leukocytes [4] = test: stress activation of leukocytes in contact with cotton wool compresses, release of reactive oxygen by luminol-enhanced chemiluminescence; conditions: cotton wool compress with physiological saline solution with glutathione, final concentration 0.05 mM, vs untreated compress; FIG. 3
Procedure: First of all leukocytes were isolated from human veinous blood and the cells were then left in contact with cotton wool compresses and stress activation of the cells was measured as the release of reactive oxygen with luminol-enhanced chemiluminiscense.
From FIG. 1 it is apparent that the leukocytes are activated on contact with cotton wool compresses.
The cellulose is then reduced again with cyanoborohydride.

| SMILES | ability of leukocytes to kill bacteria (number of bacterial colonies, CFU) (leukocytes [1]) | ability of leukocytes to be activated by zymosan (leukocytes [2]) | lipid peroxidation of the cell membrane (leukocytes [3]) | activation of leukocytes (release of reactive oxygen) (leukocytes [4]) |
| --- | --- | --- | --- | --- |
| CC(=O)N[C@@H](CS)C(=O)O [N-acetylcysteine] | kill the bacteria completely | – | – | – |
| N[C@@H](CCC(=O)N[C@@H](CS)C(=O)NCC(=O)O)C(=O)O [glutathione] | kill the bacteria completely | retain the ability to be activated by zymosan | reduce the lipid peroxidation of the cell membrane | does not affect activation of the leukocytes; also recorded: somewhat increased quantity of reactive oxygen |
